Data on 5 compounds can be found in EP0790996B1, “PYRIDAZINOQUINOLINE COMPOUNDS” (AstraZeneca AB, priority 1994, dated 1996).

Where two headings read alike, the source gives them in different places.

Test [1] deals with NMDA-induced excitatory response of red nucleus cells. Nature of the test: Red nucleus test (Test B). Conditions: Rattus norvegicus. Format: in vivo, Rats. On the procedure:
The purpose of this test is to determine the effects of intravenously administered glycine antagonists on the NMDA-induced excitatory response of red nucleus cells.
The procedure for the red nucleus test is as follows. Rats are anesthetized with chloral hydrate (400 mg/kg ip) and the femoral vein is catheterized for iv drug administration. Five-barrel micropipettes are stereotaxically positioned in the red nucleus. Typically, three to four of the five barrels are filled as follows: the recording barrel with 2M potassium citrate, the current balancing barrel with 4M NaCl, the drug barrel with 25mM NMDA, and another drug barrel with 2.5mM quisqualic acid (QA is only used in selectivity studies). NMDA is iontophoretically applied with an ejection current that is adjusted depending on the sensitivity of each individual red nucleus cell. The NMDA is cycled on and off (usually 30 - 60 sec. on and 60 - 120 sec. off) and the firing rate of the cell during each period is recorded. Once the baseline firing rate of the cell has been established, the test drug is administered iv. The effect of the drug on the NMDA-induced excitatory response of the red nucleus cell can be both qualitatively and quantitatively evaluated from the recordings and the raw data accumulated.

The next test deals with Male SHR rats. Nature of the test: Rat Middle Cerebral Artery test (Test C), permanent MCA occlusion. Format: in vivo. The settings on record: 24 hours after MCA/common carotid artery occlusion. On the procedure: Male SHR rats weighing 280-320 g are used for these studies. The method used for permanent middle cerebral artery (MCA) occlusion is as described by Brint et al (1988). […] Following occlusions, drugs are administered intravenously via jugular catheter. Twenty-four hours after MCA/common carotid artery occlusion, the animals are sacrificed and their brains quickly removed. Coronal sections of 1 mm thickness are cut using a vibratome and stained with 2,3,5, triphenyl, 2H-tetrazolium chloride (TTC) dye. Following staining, necrotic tissue is readily distinguished from the intact brain and the area of infarcted cortex can be traced on an image analyzer. The infarct volume for each section is quantified with an image analyzer, and the total infarct volume is calculated with a program that summed all interval volume. See S. Brint et al. J. Cerebral Blood Flow 8:474-485 (1988). The statistical analysis of the difference between the volume of ischemic damage in the vehicle control and drug-treated animals is analyzed by student's-t-test. […] For example, the compound of example 145 at an I.V. dose of 10 mgs/kg/hr caused an infarct % volume change of -42% while a 5.0 mg/kg/hr I.V. dosage caused a -8% reduction.

The target in test [2] is T1, glycine receptor of the NMDA receptor complex (Rattus norvegicus, UniProt P35439).
T1 construct: Freshly dissected cortices and hippocampi are homogenized in 0.32 M sucrose; from tissue; host or cells: rat cerebral cortex and hippocampus synaptic membranes
In words: [3H]-glycine binding assay (Test A). More on the design: species or system Sprague-Dawley rats. The settings on record: 20 nanomolar [3H]-glycine, rat synaptic membranes, pH 7.1, 30 minutes at 4 °C. On the procedure: In the [^3H]-glycine binding assay, neuronal synaptic membranes are prepared from adult (about 250 g) male Sprague-Dawley rats. Freshly dissected cortices and hippocampi are homogenized in 0.32 M sucrose (110 mg/mL). Synaptosomes are isolated by centrifugation (1000 xg, 10 min), the supernatant is pelleted (20,000 xg, 20 min) and resuspended in double-distilled water. The suspension was centrifuged for 20 minutes at 8,000 xg. The resulting […] and buffy coat are washed twice (48,000 xg, 10 mins, resuspension in double-deionized water). The final pellet is quickly frozen (dry ice/ethanol bath) under double-deionized water and stored at -70 °C.
On the day of the experiment, thawed synaptic membranes are homogenized with a Brinkmann Polytron (tm, Brinkmann Instruments, Westbury, N.Y.) tissue homogenizer in 50 millimolar tris(hydroxymethyl)aminomethane citrate, pH 7.1. The membranes are incubated with 0.04% Sufact-AMPS X100 (tm, Pierce, Rockford, IL) in buffer for 20 minutes at 37 °C and washed six times by centrifugation (48,000 xg, 10 min) and resuspended in buffer. The final pellet is homogenized at 200 mg wet weight/mL of the buffer for the binding assay.
For [^3H]-glycine binding at the N-methyl-D-aspartate receptor, 20 nanomolar [^3H]-glycine (40-60 Ci/mmol, New England Nuclear, Boston, MA) is incubated with the membranes suspended in 50 millimolar tris (hydroxymethyl)aminomethane citrate, pH 7.1 for 30 minutes at 4 °C. Glycine, 1 millimolar, is used to define the nonspecific binding. Bound [^3H]-glycine is isolated from free using a Brandel (Biomedical Research and Development Laboratories, Gaithersburg, MD) cell harvester for vacuum filtration over glass fiber filters (Whatman GF/B from Brandel, Gaithersburg, MD) presoaked in 0.025% polyethylenimine. The samples retained on the glass fiber filters are rinsed 3 times with a total of 2.5 mL ice cold buffer. Radioactivity is estimated by liquid scintillation counting. IC50 values are obtained from a least-squares regression of a logit-log transformation of the data. […]

For the compound `NC1CCN(O)C1=O` (racemic) [HA-966], the ED50 in test [1] (reference agents, intravenous, anesthetized rats, read-out: ID50 (the source's name)) was 7.9 mg/kg.
With `C/C(=C\C(N)C(=O)O)CP(=O)(O)O` (centres unmarked) [CGP 37849], in test [1] (iv, read-out: ID50), the ED50 stood at 1.7 mg/kg.
A word on the IC50: it is the midpoint of a concentration-inhibition curve. Lower therefore signals inhibition by little substance. Consider `Cc1ccc(-n2nc(O)c3c(c2=O)Cc2ccc(Cl)cc2N3)cc1` [Example 145, 7-Chloro-4-hydroxy-5,10-dihydro-2-(4'-methylphenyl)pyridazino[4,5-b]-quinoline-1-one], for which, in test [1] (as the meglumine salt (N=5), administered iv, read-out: ID50 (the source's name)), the ED50 stood at 6.54 mg/kg. The entries for the “infarct % volume change” value in the test with Male SHR rats (5.0 mg/kg/hr I.V. dosage) and in the test with Male SHR rats (I.V. dose of 10 mgs/kg/hr) were -8% and -42%, respectively. The 50% inhibitory concentration (IC50) in test [2] was found to be 45 nM.
In test [2], `O=c1c2c(c(O)nn1-c1ccccc1)Nc1cc(Cl)ccc1C2` [Example 147, 7-chloro-4-hydroxy-2-phenyl-5,10-dihydro-2H-pyridazino [4,5-b]quinolin-1-one] gave an IC50 of 17 nM.
With `COc1ccc(-n2nc(O)c3c(c2=O)Cc2ccc(Cl)cc2N3)cc1` [Example 148, 7-chloro-4-hydoxy-2-(4'-methoxyphenyl)-5,10-dihydro-2H-pyridazino[4,5-b]quinoline-1-one], in test [2], the IC50 is 440 nM.
